In patent US9303165B2, “Bacteriochlorin imides” (North Carolina State University, priority 2011, dated 2016):
Like-named read-outs stand apart in the source and are kept apart here.

Legend:
[1] = Static absorption spectra (Qy(0,0) band); assay type: physicochemical; settings: for λQy abs: Qy(0,0) absorption band, in toluene at room temperature; for λQy/IB: ratio of the peak intensities of the Qy(0,0) and B bands, toluene, room temperature
Description: (§1) Static absorption and fluorescence measurements were performed as described previously.^69,70 Argon-purged solutions of the samples in toluene with an absorbance of ≦0.10 at the excitation wavelength were used for the fluorescence spectral, quantum yield, and lifetime measurements. Fluorescence lifetimes were obtained using a phase modulation technique and Soret-band excitation^70 or via decay measurements using Soret-region excitation pulses obtained from a nitrogen-pumped dye laser and time-correlated-single-photon-counting detection. Emission measurements employed 2-4 nm excitation- and detection-monochromator bandwidths and 0.2 nm data intervals. Emission spectra were corrected for detection-system spectral response.

[2] = Singlet excited-state lifetime by fluorescence techniques; assay type: physicochemical; settings: toluene, room temperature; error ± 7%
Description: as §1

[3] = Static fluorescence spectra and fluorescence quantum yield; assay type: physicochemical; settings: for λQy em: Qy(0,0) emission band, in toluene at room temperature; for Φf fluorescence quantum yield: toluene, room temperature, argon-purged, error ± 7%
Description: as §1

[4] = cited from earlier work
[5] = cited from earlier work; remark: listed apart in the source
[6] = organic solvents; cited from earlier work

Structure (SMILES) | λQy abs [1] | λQy/IB [1] | τs lifetime of the lowest singlet excited state [2] | λQy em [3] | Φf fluorescence quantum yield [3] | other results
CCOC(=O)c1c(CC)c2cc3nc(c4c5[nH]c(cc6nc(cc1[nH]2)CC6(C)C)c(CC)c5C(=O)N(Cc1ccccc1)C4=O)CC3(C)C [HBC-I, 15^2-N-Benzyl-3-ethoxycarbonyl-2,12-diethyl-8,8,18,18-tetramethylbacteriochlorin-13,15-dicarboximide] | 818 nm | 1.3 | 1.9 ns | 823 nm | 0.036 | Stokes shift (fluorescence Qy(0,0) to longer wavelength than absorption Qy(0,0)) ([3]; in toluene): ~5 nm
CC(=O)c1cc2cc3nc(cc4[nH]c(cc5nc(cc1[nH]2)CC5(C)C)cc4C(C)=O)CC3(C)C [HBC-A] | 768 nm | 1.2 | 2.9 ns | 771 nm | 0.11 | –
C=Cc1c(C)c2cc3nc(c4c5[n-]c(cc6nc(cc1[n-]2)C(C)=C6CC)c(C)c5C(=O)[C@@H]4C(=O)OC)[C@@H](CCC(=O)OC/C=C(\C)CCC[C@H](C)CCC[C@H](C)CCCC(C)C)[C@@H]3C.[Mg+2] [chlorophyll a] | – | – | – | – | – | Φf of quantum yield standard ([4]; in benzene): 0.325; Φf of quantum yield standard ([3]; in toluene): same value as in benzene
CCOC(=O)c1c(CC)c2cc3nc(c4c5[nH]c(cc6nc(c(OC)c1[nH]2)CC6(C)C)c(CC)c5C(=O)N(Cc1ccccc1)C4=O)CC3(C)C [MeOBC-I, 15^2-N-Benzyl-3-ethoxycarbonyl-2,12-diethyl-5-methoxy-8,8,18,18-tetramethyl-bacteriochlorin-13,15-dicarboximide] | 793 nm | 1.0 | 2.2 ns | 798 nm | 0.052 | Stokes shift (fluorescence Qy(0,0) to longer wavelength than absorption Qy(0,0)) ([3]; in toluene): ~5 nm
CC(=O)O[C@@H]1C[C@@H](O)[C@@H](C)OC1[C@]1(C)C(=O)c2cc3cc(C)c(cc4nc(cc5[nH]c(cc1n2)cc5C)C(=O)[C@@]4(C)C1O[C@H](C)[C@H](O)C[C@H]1OC(C)=O)[nH]3 (some centres unmarked) [tolyporphin A] | – | – | – | – | – | absorption wavelength [5]: 678 nm
COc1c2nc(cc3[nH]c4c(c5nc(cc6[nH]c1c(C(C)=O)c6C)C(C)(C)C5)CC(=O)c4c3C)C(C)(C)C2 [MeOBOP, 3-Acetyl-5-methoxy-2,8,8,12,18,18-hexamethylbacterio-13^1-oxophorbine] | 733 nm | 0.93 | 4.6 ns | 739 nm | 0.19 | Stokes shift (fluorescence Qy(0,0) to longer wavelength than absorption Qy(0,0)) ([3]; in toluene): ~5 nm
CC(=O)c1c(C)c2cc3nc(cc4[nH]c(cc5nc(cc1[nH]2)CC5(C)C)c(C)c4C(C)=O)CC3(C)C [HBC-MeA, 3,13-Diacetyl-2,8,8,12,18,18-hexamethylbacteriochlorin] | 766 nm | – | – | – | – | –
CC[C@H]1c2cc3[nH]c4c(c3C)C(=O)[C@H](C(=O)OC)c4c3nc(cc4[nH]c(cc(n2)[C@@H]1C)c(C(C)=O)c4C)[C@@H](C)[C@@H]3CCC(=O)OC/C=C(\C)CCC[C@H](C)CCC[C@H](C)CCCC(C)C [BPh-a, Bacteriopheophytin a] | 758 nm | 0.69 | 2.7 ns | 768 nm | 0.10 | average singlet excited-state lifetime [6]: 2.0-2.7 ns; Qy(0,0) absorption ([5]; hydrocarbon / organic solvents): 750-760 nm
CC[C@H]1c2cc3[nH]c4c(c5nc(cc6[nH]c(cc(n2)[C@@H]1C)c(C(C)=O)c6C)[C@@H](C)[C@@H]5CCC(=O)OC)CC(=O)c4c3C [methyl bacteriopyropheophorbide a] | – | – | – | – | – | Qy(0,0) absorption ([5]; in CH2Cl2): 754 nm
COc1c2nc(cc3cc(C(C)=O)c(cc4nc(cc5cc(C(C)=O)c1[nH]5)C(C)(C)C4)[nH]3)C(C)(C)C2 [MeOBC-A, 3,13-Diacetyl-5-methoxy-8,8,18,18-tetramethylbacteriochlorin] | 740 nm | 0.96 | 3.8 ns | 747 nm | 0.14 | –
COc1c2nc(cc3ccc(cc4nc(cc5ccc1[nH]5)C(C)(C)C4)[nH]3)C(C)(C)C2 [MeOBC] | 709 nm | 0.87 | 5.0 ns | 711 nm | 0.25 | –
CC1(C)Cc2cc3ccc(cc4nc(cc5ccc(cc1n2)[nH]5)CC4(C)C)[nH]3 [HBC] | 713 nm | 0.85 | 4.0 ns | 716 nm | 0.17 | –
C1=Cc2nc1c(-c1ccccc1)c1ccc([nH]1)c(-c1ccccc1)c1nc(c(-c3ccccc3)c3ccc([nH]3)c2-c2ccccc2)C=C1 [free base tetraphenylporphyrin] | – | – | – | – | – | Φf of quantum yield standard ([4]; free base): 0.090
CCOC(=O)c1c(CC)c2cc3nc(c(OC)c4[nH]c(cc5nc(cc1[nH]2)CC5)c(CC)c4C(=O)OCC)CC3 [MeOBC-EtEs, 2,12-diethyl-3,13-diethoxycarbonyl-5-methoxybacteriochlorin] | 739 nm | 1.1 | 4.3 ns | 749 nm | 0.17 | Stokes shift (fluorescence Qy(0,0) to longer wavelength than absorption Qy(0,0)) ([3]; in toluene): ~15 nm
COc1c2nc(cc3[nH]c(cc4nc(cc5[nH]c1c(C(C)=O)c5C)C(C)(C)C4)c(C(C)=O)c3C)C(C)(C)C2 [MeOBC-MeA, 3,13-Diacetyl-5-methoxy-2,8,8,12,18,18-hexamethylbacteriochlorin] | 743 nm | 0.95 | 3.4 ns | 749 nm | 0.13 | –
